Experimental data: ChEMBL document CHEMBL4483862, “Open-source discovery of chemical leads for next-generation chemoprotective antimalarials” (2018)

System: Plasmodium berghei
Assay: Luciferase/luciferin-expressing antifolate-resistant parasites were used to infect a culture of HepG2 cells that were pre-incubated with compounds. Infected hepatocytes emit light due to the luciferase reaction. Assay results are presented as the percent inhibition of light emission compared to control. […]
Format: functional
Conditions: sporozoite; for IC90: read-out: LUCIFERASE INFECTION ASSAY - IC90

| SMILES | IC90 [µM] | further results |
| --- | --- | --- |
| CC(C)Cc1ccc(C(=O)CC(Sc2ccccc2N)c2cccc([N+](=O)[O-])c2)cc1 (configuration not stated) | 2.86 | IC50 (FFLUC_HILL_SLOPE 39.9, FFLUC_R_SQUARED 0.525, PBLUC_HILL_SLOPE 1.28, PBLUC_R_SQUARED 0.727, read-out: LUCIFERASE INFECTION ASSAY - IC50): 0.511 µM |
| CCCn1c(NC(=O)c2ccccc2SCc2c(C)noc2C)nc2ccccc21 | 9.89 | IC50 (FFLUC_HILL_SLOPE 30, FFLUC_R_SQUARED 0.401, HEPG2TOX_HILL_SLOPE 7.23, HEPG2TOX_R_SQUARED 0.341, PBLUC_HILL_SLOPE 15.1, PBLUC_R_SQUARED 0.618, read-out: LUCIFERASE INFECTION ASSAY - IC50): 8.55 µM |
| Cc1ccc(N2C(=N)C(c3nc4ccccc4s3)C(c3ccccc3)C2=O)cc1 (configuration not stated) | > 10 | IC50 (FFLUC_HILL_SLOPE 38.3, FFLUC_R_SQUARED 0.217, HEPG2TOX_HILL_SLOPE 0.75, HEPG2TOX_R_SQUARED 0.479, read-out: LUCIFERASE INFECTION ASSAY - IC50): > 10 µM |
| O=C(Oc1ccc(Cl)cc1Sc1cc(Cl)ccc1OC(=O)c1cccs1)c1cccs1 | > 6.5 | IC50 (FFLUC_HILL_SLOPE 35.2, FFLUC_R_SQUARED 0.259, read-out: LUCIFERASE INFECTION ASSAY - IC50): > 6.5 µM |
| CSc1sc(C(=O)OC2CCCCC2)c2c1C(=O)CC(C)(C)C2 | > 9.36 | IC50 (FFLUC_HILL_SLOPE 35.3, FFLUC_R_SQUARED 0.0335, read-out: LUCIFERASE INFECTION ASSAY - IC50): > 9.36 µM |
| CC1CCC(C(C)C)C(N(Cc2ccccc2)C(=O)c2cccc3ccccc23)C1 (configuration not stated) | > 8.26 | IC50 (FFLUC_HILL_SLOPE 35.1, FFLUC_R_SQUARED 0.0345, HEPG2TOX_HILL_SLOPE 5.62, HEPG2TOX_R_SQUARED 0.422, PBLUC_HILL_SLOPE 0.939, PBLUC_R_SQUARED 0.258, read-out: LUCIFERASE INFECTION ASSAY - IC50): 6.39 µM |
| CCOC(=O)c1c(C2CC2)csc1NC(=O)COC(=O)c1cc(C)n(-c2cc(Cl)ccc2OC)c1C | > 10 | IC50 (FFLUC_HILL_SLOPE 35.2, FFLUC_R_SQUARED 0.269, read-out: LUCIFERASE INFECTION ASSAY - IC50): > 10 µM |
| CCOC(=O)c1ccc(N2CCCCC2)c(NC(=O)c2sc3ccccc3c2Cl)c1 | > 7.45 | IC50 (FFLUC_HILL_SLOPE 35, FFLUC_R_SQUARED 0.23, read-out: LUCIFERASE INFECTION ASSAY - IC50): > 7.45 µM |
| Cn1c(CSc2cccs2)n[nH]c1=S | > 13.6 | IC50 (FFLUC_HILL_SLOPE 40, FFLUC_R_SQUARED 0.0342, read-out: LUCIFERASE INFECTION ASSAY - IC50): > 13.6 µM |
| O=C1C=C(c2ccccc2)C(=O)N1c1cccc(Cl)c1 | > 11.6 | IC50 (FFLUC_HILL_SLOPE 29.2, FFLUC_R_SQUARED 0.289, PBLUC_HILL_SLOPE 11, PBLUC_R_SQUARED 0.329, read-out: LUCIFERASE INFECTION ASSAY - IC50): 11.3 µM |
| COc1cc(/C=C2\COc3c(Cl)cc(Cl)cc3C2=O)cc(OC)c1O | 7.17 | IC50 (FFLUC_HILL_SLOPE 30.3, FFLUC_R_SQUARED 0.145, HEPG2TOX_HILL_SLOPE 11.5, HEPG2TOX_R_SQUARED 0.166, PBLUC_HILL_SLOPE 35.9, PBLUC_R_SQUARED 0.493, read-out: LUCIFERASE INFECTION ASSAY - IC50): 6.74 µM |
| CCOc1ccc(-n2c(SCC(=O)Nc3cc(C(C)(C)C)nn3-c3ccccc3)nc3ccccc32)cc1 | > 10 | IC50 (FFLUC_HILL_SLOPE 35.3, FFLUC_R_SQUARED 0.234, PBLUC_HILL_SLOPE 11.6, PBLUC_R_SQUARED 0.616, read-out: LUCIFERASE INFECTION ASSAY - IC50): 8.73 µM |
| Cc1cc([N+](=O)[O-])cc(S(=O)(=O)N(C)Cc2ccc(C(=O)NC3CC3)cc2)c1C | 6.84 | IC50 (FFLUC_HILL_SLOPE 30.1, FFLUC_R_SQUARED 0.449, PBLUC_HILL_SLOPE 4.67, PBLUC_R_SQUARED 0.152, read-out: LUCIFERASE INFECTION ASSAY - IC50): 4.27 µM |
| O=C(NC1CCSc2ccc(Cl)cc21)c1cc(Br)c[nH]1 (configuration not stated) | > 10 | IC50 (FFLUC_HILL_SLOPE 30.3, FFLUC_R_SQUARED 0.512, PBLUC_HILL_SLOPE 1.67, PBLUC_R_SQUARED 0.28, read-out: LUCIFERASE INFECTION ASSAY - IC50): 5.71 µM |
| OCCNc1ncnc2c1c(-c1ccccc1)cn2-c1ccc(Cl)cc1 | > 10 | IC50 (FFLUC_HILL_SLOPE 35.7, FFLUC_R_SQUARED 0.282, read-out: LUCIFERASE INFECTION ASSAY - IC50): > 10 µM |
| Cc1cc(NC(=O)c2ccc(CSCc3c(Cl)cccc3Cl)cc2)no1 | 1.31 | IC50 (FFLUC_HILL_SLOPE 28.8, FFLUC_R_SQUARED 0.69, PBLUC_HILL_SLOPE 8.08, PBLUC_R_SQUARED 0.529, read-out: LUCIFERASE INFECTION ASSAY - IC50): 0.997 µM |

| SMILES | IC90 [µM] | further results |
| --- | --- | --- |
| CCOC(=O)c1c(S(=O)(=O)Nc2cccc(C(F)(F)F)c2)c(-c2ccccc2)n(-c2ccccc2)c1C | > 6.24 | IC50 (FFLUC_HILL_SLOPE 40.4, FFLUC_R_SQUARED 0.424, read-out: LUCIFERASE INFECTION ASSAY - IC50): > 6.24 µM |
| CC(C)Cn1c(N)c(C(=O)COC(=O)c2cc(-c3cccs3)nc3ccccc23)c(=O)n(C)c1=O | 3.23 | IC50 (FFLUC_HILL_SLOPE 33.5, FFLUC_R_SQUARED 0.479, PBLUC_HILL_SLOPE 4.72, PBLUC_R_SQUARED 0.427, read-out: LUCIFERASE INFECTION ASSAY - IC50): 2.03 µM |
| O=C(Nc1ccc(-n2nncc2-c2ccccc2)cc1)c1ccc(S(=O)(=O)N2CCCCC2)cc1 | 9.56 | IC50 (FFLUC_HILL_SLOPE 38.4, FFLUC_R_SQUARED 0.244, HEPG2TOX_HILL_SLOPE 8, HEPG2TOX_R_SQUARED 0.798, PBLUC_HILL_SLOPE 2.57, PBLUC_R_SQUARED 0.825, read-out: LUCIFERASE INFECTION ASSAY - IC50): 4.06 µM |
| CS/C(Nc1cccc(C(F)(F)F)c1)=C(/C#N)S(=O)(=O)c1ccc(Cl)cc1 | > 7.62 | IC50 (FFLUC_HILL_SLOPE 30.1, FFLUC_R_SQUARED 0.771, HEPG2TOX_HILL_SLOPE 1.92, HEPG2TOX_R_SQUARED 0.988, PBLUC_HILL_SLOPE 2.74, PBLUC_R_SQUARED 0.0319, read-out: LUCIFERASE INFECTION ASSAY - IC50): 4.34 µM |
| O=C(Nc1ccc(OC(F)(F)F)cc1)Sc1ccc(Cl)s1 | > 9.33 | IC50 (FFLUC_HILL_SLOPE 30.4, FFLUC_R_SQUARED 0.438, HEPG2TOX_HILL_SLOPE 8.9, HEPG2TOX_R_SQUARED 0.733, PBLUC_HILL_SLOPE 2, PBLUC_R_SQUARED 0.693, read-out: LUCIFERASE INFECTION ASSAY - IC50): 3.61 µM |
| CCOC(=O)c1c(-c2ccccc2)csc1NC(=O)c1cc(-c2ccco2)nc2ccccc12 | 9.72 | IC50 (FFLUC_HILL_SLOPE 28.5, FFLUC_R_SQUARED 0.474, PBLUC_HILL_SLOPE 2.84, PBLUC_R_SQUARED 0.759, read-out: LUCIFERASE INFECTION ASSAY - IC50): 4.48 µM |
| Cc1onc(-c2ccccc2)c1-c1csc(Nc2cc(C(F)(F)F)cc(C(F)(F)F)c2)n1 | 3.88 | IC50 (FFLUC_HILL_SLOPE 38.4, FFLUC_R_SQUARED 0.44, HEPG2TOX_HILL_SLOPE 9.25, HEPG2TOX_R_SQUARED 0.968, PBLUC_HILL_SLOPE 81.8, PBLUC_R_SQUARED 0.627, read-out: LUCIFERASE INFECTION ASSAY - IC50): 3.78 µM |
| CC(C)NC(=O)c1c(NC(=O)c2cccc(C(F)(F)F)c2)nc2ccccn12 | 0.971 | IC50 (FFLUC_HILL_SLOPE 39.4, FFLUC_R_SQUARED 0.293, HEPG2TOX_HILL_SLOPE 0.926, HEPG2TOX_R_SQUARED 0.794, PBLUC_HILL_SLOPE 4.31, PBLUC_R_SQUARED 0.785, read-out: LUCIFERASE INFECTION ASSAY - IC50): 0.583 µM |
| Cc1cc(-c2cccc3[nH]c(C(F)(F)F)nc23)nn1C(=O)c1ccc([N+](=O)[O-])cc1 | > 10 | IC50 (FFLUC_HILL_SLOPE 35.5, FFLUC_R_SQUARED 0.403, HEPG2TOX_HILL_SLOPE 0.192, HEPG2TOX_R_SQUARED 0.301, PBLUC_HILL_SLOPE 13.6, PBLUC_R_SQUARED 0.349, read-out: LUCIFERASE INFECTION ASSAY - IC50): 9.27 µM |
| C=CCn1c(Sc2nc(C)nc3sc4c(c23)CCC4)nnc1-c1ccco1 | > 10 | IC50 (FFLUC_HILL_SLOPE 38.3, FFLUC_R_SQUARED 0.259, read-out: LUCIFERASE INFECTION ASSAY - IC50): > 10 µM |
| CCCCNC(=O)c1c(NC(=O)COc2ccccc2)nc2ccc(C)cn12 | 8.47 | IC50 (FFLUC_HILL_SLOPE 32.7, FFLUC_R_SQUARED 0.34, HEPG2TOX_HILL_SLOPE 7.48, HEPG2TOX_R_SQUARED 0.362, PBLUC_HILL_SLOPE 14.2, PBLUC_R_SQUARED 0.182, read-out: LUCIFERASE INFECTION ASSAY - IC50): 7.25 µM |
| CCCc1ccc(-c2nc(-c3ccccc3)no2)cc1 | 0.0999 | IC50 (FFLUC_HILL_SLOPE 35.1, FFLUC_R_SQUARED 0.438, PBLUC_HILL_SLOPE 1.27, PBLUC_R_SQUARED 0.957, read-out: LUCIFERASE INFECTION ASSAY - IC50): 0.0177 µM |
| CCCOc1ccc(C=C(c2nc3ccccc3s2)c2nc3ccccc3s2)c(O)c1 | > 10 | IC50 (FFLUC_HILL_SLOPE 30.4, FFLUC_R_SQUARED 0.313, read-out: LUCIFERASE INFECTION ASSAY - IC50): > 10 µM |
| CC(C)N(c1ccccc1)c1ccc(NC(=O)COC(=O)c2ccc(Cl)c(S(=O)(=O)N(Cc3ccccc3)c3ccc(Cl)cc3)c2)cc1 | > 10 | IC50 (FFLUC_HILL_SLOPE 30.3, FFLUC_R_SQUARED 0.617, PBLUC_HILL_SLOPE 4.64, PBLUC_R_SQUARED 0.334, read-out: LUCIFERASE INFECTION ASSAY - IC50): 9.19 µM |
| O=S(=O)(Nc1cc(C(F)(F)F)cc(C(F)(F)F)c1)c1ccccc1Oc1ccc(Cl)cc1Cl | > 6.22 | IC50 (FFLUC_HILL_SLOPE 40.5, FFLUC_R_SQUARED 0.634, read-out: LUCIFERASE INFECTION ASSAY - IC50): > 6.22 µM |
